IC50 data for three compounds are collected here from ChEMBL document CHEMBL3886674, “Aminopyrimidine derivatives for use as modulators of kinase activity” (2016).

pIC50: −log10 of the molar value.

In general, pIC50 refers to the negative decadic logarithm of the IC50, by convention in mol/L.

This experiment deals with Ribosomal protein S6 kinase beta-1 (Homo sapiens, UniProt P23443, T412E). As to the kind of experiment: Enzyme Assay: P70S6K inhibitor compounds were diluted and plated in 96 well plates. A reaction mixture including the following components was then added to the compound plate to initiate the enzyme reaction; P70S6K (3 nM, T412E mutant, Millipore) was mixed with 24 μM ATP in an assay buffer containing 100 mM Hepes (pH 7.5), 5 mM MgCl2, 1 mM DTT, 0.015% Brij and 1 μM of the substrate peptide FITC-AHA-AKRRRLSSLRA-OH (derived from the S6 ribosomal protein sequence, FITC=fluorescein isothiocyanate, AHA=6-aminohexanoic acid). The reaction was incubated for 90 min at 25° C., before the addition of 10 mM EDTA to stop the reaction.
Ribosomal protein S6 kinase beta-1, sequence (P23443 whole entry T412E): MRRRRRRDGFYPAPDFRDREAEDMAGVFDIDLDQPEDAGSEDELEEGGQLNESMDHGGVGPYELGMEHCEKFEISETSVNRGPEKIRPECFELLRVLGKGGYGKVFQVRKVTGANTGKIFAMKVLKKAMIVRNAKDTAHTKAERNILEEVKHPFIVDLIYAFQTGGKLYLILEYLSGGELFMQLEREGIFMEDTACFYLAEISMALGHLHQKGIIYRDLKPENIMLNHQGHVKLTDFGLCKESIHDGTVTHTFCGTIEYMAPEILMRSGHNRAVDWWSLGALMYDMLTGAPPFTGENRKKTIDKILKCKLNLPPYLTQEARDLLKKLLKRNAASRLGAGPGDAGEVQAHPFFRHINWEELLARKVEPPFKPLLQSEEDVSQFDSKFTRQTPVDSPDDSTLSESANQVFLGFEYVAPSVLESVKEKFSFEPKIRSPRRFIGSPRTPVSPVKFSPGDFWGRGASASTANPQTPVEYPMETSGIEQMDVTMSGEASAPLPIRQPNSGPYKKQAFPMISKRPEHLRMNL
Take `Nc1ncnc(N2CCC(C(N)c3ccc(Cl)cc3)CC2)c1-c1ccc(F)cc1` (stereo not drawn): the pIC50 is 7.89. `Nc1ncnc(N2CCC(C(N)c3ccc(-c4ccc(F)cc4)cc3)CC2)c1-c1ccc(F)cc1` (stereo not drawn): the pIC50 is 7.77. Consider `Nc1ncnc(N2CCC(C(N)c3ccc(F)cc3)CC2)c1-c1ccc(F)cc1` (stereo not drawn), for which the pIC50 is 7.57.
